{"source": "patent US20010039297A1", "about": "“COMPOSITIONS AND METHOD FOR IMPROVING INSULIN SENSIVITY AND GLUCOSE METABOLISM IN INDIVIDUALS WITH IMPAIRED FASTING GLUCOSE OR IMPAIRED GLUCOSE TOLERANCE” (Insmed Pharmaceuticals, Inc., priority 1998, published 2001)", "format_in_all_cases": "in vivo, human", "key": {"[1]": {"test_system": "obese men", "assay": "tolbutamide-modified frequently sampled intravenous glucose tolerance test (FSIGTT), insulin sensitivity index by minimal model, clinical study", "conditions": "single oral dose 300-1200 mg, fasted, 2 hours before FSIGTT", "source_text": "The third method of determining insulin sensitivity involves frequently collecting blood samples for glucose and insulin during an intravenous glucose tolerance test, and analyzing the glucose and insulin dynamics using a minimal mathematical model developed by Bergman (Bergman et. al., J. Clin. Invest. 68:1456-1467 (1981)). This test can be modified by the injection of tolbutamide or exogenous insulin to boost the insulin response and improve the correlation with the euglycemic clamp. The FSIGTT provides an accessible way to determine the insulin sensitivity index (S1). The more insulin insensitive a subject is, the lower the calculated S1. As insulin sensitivity is improved, the S1 value is increased—thus a higher S1 value corresponds to greater insulin sensitivity.\nA clinical study of D-chiro-inositol was performed in obese men. This was a three phase, double blind, single oral dose crossover study with subjects receiving either D-chiro-inositol (300-1200 mg) or placebo in a randomized crossover fashion. Treatments were administered to subjects in a fasted state 2 hours before the tolbutamide-modified frequently sampled intravenous glucose tolerance test (FSIGTT) began.\nThe insulin sensitivity index (S1) was derived using the minimal model analysis of plasma glucose and insulin concentrations sampled during a full tolbutamide-modified FSIGTT."}, "[2]": {"test_system": "obese men and women with normal glucose tolerance", "assay": "oral glucose tolerance test before and after treatment, clinical study, subjects with normal glucose tolerance", "conditions": "eleven volunteers with normal glucose response; 1200 mg/day for 7 to 14 days", "procedure": "(§1) Impaired glucose tolerance, as defined by the World Health Organization, is determined by the administration of a standard oral glucose tolerance test (OGTT) (World Health Org., Diabetes Mellitus, Tech. Rep. Ser., no. 727 (1985)). During an OGTT, a measured amount of glucose (75 grams) is given to a fasted individual and blood glucose levels are measured every 30 minutes, usually for 2 or 3 hours. In a individual with normal glucose tolerance, the blood glucose values will rise during the first part of the test and then rapidly return to basal levels. In an IGT individual the post prandial glucose levels will rise above the normal range, producing a 2-hour glucose value of 140-199 mg/dL, and return to basal levels at a slow rate.\n(§2) A clinical study utilizing D-chiro-inositol was performed in obese men and women with normal and abnormal glucose tolerance. Eighteen volunteers received D-chiro-inositol (1200 mg/day) for 7 to 14 days. An oral glucose tolerance test was performed at the beginning of the study, prior to treatment, and at the end of the study, after D-chiro-inositol treatment."}, "[3]": {"test_system": "obese men and women with abnormal glucose tolerance", "assay": "oral glucose tolerance test before and after treatment, clinical study, subjects with abnormal glucose tolerance", "conditions": "1200 mg/day for 7 to 14 days", "procedure": "as §1, §2"}}}
{"smiles": "OC1C(O)C(O)C(O)C(O)C1O", "note": "[D-chiro-inositol]", "values": [{"measurement": "mean increase in insulin sensitivity", "setting": "[1]", "result": 61, "unit": "%"}, {"measurement": "subjects demonstrating an increase in insulin sensitivity (S1)", "setting": "[1]; out of 9 subjects", "result": "6 out of 9"}, {"measurement": "glucose values during OGTT", "setting": "[2]", "result": "not modified"}, {"measurement": "90 and 120 minute glucose values in OGTT", "setting": "[3]; abnormal glucose tolerant subjects, p<0.05", "result": "statistically significant reduction"}, {"measurement": "glucose response to the glucose load (OGTT)", "setting": "[3]; seven subjects with abnormal, elevated glucose response", "result": "significantly improved"}]}
